Measurements reported in US4584186A, “Radiolabelled metallocene derivatives” (Mallinckrodt, Diagnostica (Holland) B.V., priority 1982, dated 1986).
Counter-ions that a name gives are not always drawn.

How the values were obtained:
[1] = renal clearance after administration to dogs (single injection method); type: in vivo, dog (beagle); conditions: for clearance in words: dog; for clearance: intravenous
Experimental: The renal clearance by tubular excretion is a measure for the renal function was determined in two dogs, viz. beagles with body weights of 13.8 kg (dog a) and 14.8 kg (dog b) respectively by the generally recognized single injection method, in broad outline as described in Example VII. As radioactive materials were used iodine-131 labelled o-iodohippuric acid sodium salt (I-131 Hippuran), indium-111 DTPA (diethylene triamine pentaacetic acid) and ruthenium-97 labelled ruthenocenoylglycine. Indium-111DTP is also recommended to be used in radiodiagnostic compositions for examination of the renal glomerular filtration function. The time intervals between the various administrations were chosen in such a way, that no interference between the radioactive materials could occur. The radioactive materials were administered intraveneously, blood samples were collected 5, 10, 15, 30, 60 and 90 minutes after administration. The emitted radioactivity was determined with a gamma camera. The decreasing radioactivity of the successive blood samples is a measure for the elimination of the radioactive compound from the blood.

[2] = organ distribution of radioactivity in mouse; conditions: approx. 0.5 umole/kg
[3] = rat, in vivo; cited from earlier work
[4] = rabbit, in vivo
[5] = urinary excretion and organ distribution in mice with increasing doses of inactive carrier; conditions: inactive carrier for labelled ruthenocenoylglycine

Molecule: O=C(O)CNC(=O)[c-]1cccc1.[Ru+2].c1cc[cH-]c1 [Ru-97 ruthenocenoylglycine, ruthenium-97 labelled ruthenocenoylglycine]
- clearance in words ([1]; in vivo): faster than that of labelled o-iodohippuric acid salt

Molecule: CCOC(=O)CNC(=O)[c-]1cccc1.[Ru+2].c1cc[cH-]c1 [Rc glycine ester, ruthenocenoyl ethylglycinate, labelled with ruthenium-103]
- 103Ru conc. kidney ([2]; after 1 hour): 141 dose/% body/wt
- 103Ru conc. kidney ([2]; after 3 hours): 90 dose/% body/wt
- 103Ru conc. kidney ([2]; after 6 hours): 125 dose/% body/wt
- 103Ru conc. liver ([2]; after 1 hour): 43 dose/% body/wt
- 103Ru conc. liver ([2]; after 3 hours): 24 dose/% body/wt
- 103Ru conc. liver ([2]; after 6 hours): 3.5 dose/% body/wt
- 103Ru conc. lung ([2]; after 1 hour): 6 dose/% body/wt
- 103Ru conc. lung ([2]; after 3 hours): 2.6 dose/% body/wt
- 103Ru conc. lung ([2]; after 6 hours): 3.0 dose/% body/wt

Molecule: NC(=O)[c-]1cccc1.[Ru+2].c1cc[cH-]c1 [ruthenocene monocarboxylic acid amide]
- accumulation of radioactivity in lung and liver relative to kidney [3]: at least equal amounts as in the kidney

Molecule: O=C(O)CNC(=O)[c-]1cccc1.[Ru+2].c1cc[cH-]c1 [Rc glycine, ruthenocenoylglycine, labelled with ruthenium-103]
- accumulation in the kidneys and excretion [4]: very rapid accumulation in the kidneys followed by a rapid excretion
- renal clearance (general statement) [4]: even faster than that of iodohippuric acid sodium salt labelled with iodine-125
- renal clearance compared with iodine-125 labelled o-iodohippuric acid sodium salt [4]: cleared more rapidly than iodine-125 labelled o-iodohippuric acid sodium salt

Molecule: Nc1ccc(C(=O)NCC(=O)O)cc1 [para-aminohippuric acid (salt), para-aminohippuric acid]
- results when used as inactive carrier instead of ruthenocenoyl- or ferrocenoylglycine [5]: Comparable results

Molecule: indium-111 DTPA (diethylene triamine pentaacetic acid) [In - 111 DTPA]
- clearance ([1]; dog a, beagle 13.8 kg): 79.6 mL/min
- clearance ([1]; dog b, beagle 14.8 kg): 62.2 mL/min
- clearance in words ([1]; comparison of the three radioactive compounds): comparatively slow

Molecule: [Ru+2].c1cc[cH-]c1.c1cc[cH-]c1 [ruthenium-103 labelled ruthenocene, ruthenocene]
- accumulation of radioactivity in lung and liver relative to kidney [3]: at least equal amounts as in the kidney

Molecule: O=C(O)CNC(=O)[c-]1cccc1.O=C(O)CNC(=O)[c-]1cccc1.[Ru+2] [ruthenocenoyl-1,1'-diglycine]
- accumulation in the kidneys and excretion [4]: very rapid accumulation in the kidneys followed by a rapid excretion

Molecule: O=C(O)CNC(=O)c1ccccc1I [ortho-iodohippuric acid (salt), ortho-iodohippuric acid]
- results when used as inactive carrier instead of ruthenocenoyl- or ferrocenoylglycine [5]: Comparable results
